Test system: Lycoris aurea
Test: Galanthamine release of plants subjected to chemical inducer treatment (LC-MS of lyophilized medium)
Format: in vivo
Details: for Amounts of galanthamine released into the medium: MS medium with 25 μM chemical inducer, whole plants of Lycoris aurea
Experimental: MS mediums containing chemical inducers (chitin (CA), salicylic acid (SA) and methyl jasmonate (MJ)) (final concentration of the chemical inducer is 25 μM) were prepared. Since the chemical inducers could not be high-strength autoclaved, after the preparations of the chemical inducers at room temperature were completed, sterilization by filtration was performed on the chemical inducers in a laminar flow. In the blank group, the medium contained no agent.
Healthy plants of Lycoris aurea with leaves and root with a bulb diameter of 0.6-0.8 cm were selected and withered epidermis on the bulb thereof was removed. The plant mentioned above was placed in a test tube having MS medium containing a chemical inducer and cultured under an illumination of 3000-4000 Lux with illumination time 16 hours an dark time 8 hours at an ambient temperature of 25-27° C.
30 mL of medium was recovered on the Day 0, Day 3, Day 7, Day 14, Day 28 and Day 35 of the culturing. The recovered medium was lyophilized to form a powder. A liquid chromatography-mass spectrometry analysis was performed on the obtained powder to determine the content of galanthamine therein to investigate the effect of the chemical stimulation treatment mentioned above on the plant that produces galanthamine and releases it into the medium.

For `CC/C=C\CC1C(=O)CCC1CC(=O)OC` (centres unmarked) [Methyl jasmonate, methyl jasmonate], the “Amounts of galanthamine released into the medium” value (“Amounts” below) (Day 0 of culturing) was 0 ppm, the “Amounts” value (Day 3 of culturing) was 0.0153 ppm and the “Amounts” value (Day 7 of culturing) was 0.0312 ppm. The “Amounts” value (Day 14 of culturing) was 0.0066 ppm, the “Amounts” value (Day 28 of culturing) was 2.72 ppm and the “Amounts” value (Day 35 of culturing) was 0.9 ppm. For the same compound, the “Effect on production and release of galanthamine for the plant (comparison of chemical inducers)” value (Table 2 and FIG. 7, 25 μM chemical inducer, Lycoris aurea) was “best effect”.
In the case of `O=C(O)c1ccccc1O` [Salicylic acid, salicylic acid], the “Amounts” value (Day 0 of culturing) is reported as 0 ppm, the “Amounts” value (Day 3 of culturing) is reported as 0.0183 ppm and the “Amounts” value (Day 7 of culturing) is reported as 0.0077 ppm. For the same compound, the “Amounts” value (Day 14 of culturing) was 0.0142 ppm, the “Amounts” value (Day 28 of culturing) was 0.36 ppm and the “Amounts” value (Day 35 of culturing) was 1.01 ppm.
In the case of chitin, the “Amounts” value (Day 0 of culturing) is reported as 0 ppm, the “Amounts” value (Day 3 of culturing) is reported as 0.0015 ppm and the “Amounts” value (Day 7 of culturing) is reported as 0.0001 ppm. The “Amounts” value (Day 14 of culturing) was 0.74 ppm.

Source: patent US11109538B2, “Method for producing galanthamine by a plant and electrical stimulation device” (Industrial Technology Research Institute, priority 2017, dated 2021)
